Data: patent US20170190705A1, “Compositions and Methods for Inhibiting BMP” (THE BRIGHAM AND WOMAN'S HOSPITAL, INC., priority 2014, published 2017)

What was measured:
caALK2 = molecular target: T1, caALK2 (Homo sapiens, UniProt Q04771, Q207D); assay: Luciferase reporter assay constitutively active ALK2; format: cell-based
T1 construct: expressed in transfected cells; host or cells: C2C12 BRE-Luc cells infected with adenovirus (MOI 100)
Protocol: The cells were incubated for 1 h (37° C. and 10% CO2) and allowed to settle and attach. Compounds of interest or DMSO were diluted in DMEM and added at final compound concentrations of 1 nM to 10 μM. Cells were then incubated for 30 min. Adenovirus expressing constitutively active BMP and TGF-β type I receptors (Ad.caALK1-5), generously provided by Dr. Akiko Hata (University of to California at San Francisco), were added to achieve a multiplicity of infection (MOI) of 100. Plates were incubated overnight at 37° C. Cell viability was assayed with an MIT (3-(4,5-dimethylthiazol-2-yl)-2,5-diphenyl tetrazolium bromide) colorimetric assay (Promega) per the manufacturer's instructions. Media was discarded, and firefly luciferase activity was measured (Promega) according to manufacturer's protocol. Light output was measured using a Spectramax L luminometer (Molecular Devices) with an integration time of one second per well. Data was normalized to 100% of incremental BRE-Luc activity due to adenoviruses specifying caALK1, 2, or 3, or the incremental CAGA-Luc activity due to adenoviruses specifying caALK4 or 5.

TTK = molecular target: T2, TTK (Homo sapiens, UniProt P33981); assay: Kinome profiling TTK; format: biochemical; settings: read-out: Inhibitory activity TTK; for inhibition at 0.1 µM: 100 nM
T2 sequence (P33981 1-857): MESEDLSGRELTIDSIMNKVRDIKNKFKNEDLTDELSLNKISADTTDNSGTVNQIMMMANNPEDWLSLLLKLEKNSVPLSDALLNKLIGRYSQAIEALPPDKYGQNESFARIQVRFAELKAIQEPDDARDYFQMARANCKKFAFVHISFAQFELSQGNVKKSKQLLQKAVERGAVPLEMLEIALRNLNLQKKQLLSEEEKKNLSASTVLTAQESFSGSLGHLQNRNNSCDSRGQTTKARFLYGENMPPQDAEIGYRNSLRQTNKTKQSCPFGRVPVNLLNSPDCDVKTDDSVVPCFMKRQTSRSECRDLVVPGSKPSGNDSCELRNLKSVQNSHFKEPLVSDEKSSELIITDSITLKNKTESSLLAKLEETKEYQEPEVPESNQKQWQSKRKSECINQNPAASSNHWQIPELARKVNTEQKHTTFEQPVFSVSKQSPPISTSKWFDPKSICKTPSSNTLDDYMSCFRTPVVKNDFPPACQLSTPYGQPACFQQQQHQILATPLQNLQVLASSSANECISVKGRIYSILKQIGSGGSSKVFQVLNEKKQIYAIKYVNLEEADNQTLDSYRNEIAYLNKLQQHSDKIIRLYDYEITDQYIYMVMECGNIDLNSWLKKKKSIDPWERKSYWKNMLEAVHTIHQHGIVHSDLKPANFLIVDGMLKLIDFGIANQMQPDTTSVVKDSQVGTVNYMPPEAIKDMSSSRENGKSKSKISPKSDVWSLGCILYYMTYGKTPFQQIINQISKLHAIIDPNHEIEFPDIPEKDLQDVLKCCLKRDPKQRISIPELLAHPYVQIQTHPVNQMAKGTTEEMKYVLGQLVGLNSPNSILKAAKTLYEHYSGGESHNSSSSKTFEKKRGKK
Protocol: (§1) . The kinome-wide selectivity was determined following the methods previously reported by Mohedas et al., ACS Chem Biol 2013, 8, 1291-1302 and Sanvitale et al., PLoS One 2013, 8, e62721.

FGFR1 = FGFR1 (Homo sapiens, UniProt P11362); assay: Kinome profiling FGFR1; format: biochemical; settings: read-out: Inhibitory activity FGFR1; for inhibition at 0.1 µM: 100 nM
FGFR1, sequence (P11362 22-822): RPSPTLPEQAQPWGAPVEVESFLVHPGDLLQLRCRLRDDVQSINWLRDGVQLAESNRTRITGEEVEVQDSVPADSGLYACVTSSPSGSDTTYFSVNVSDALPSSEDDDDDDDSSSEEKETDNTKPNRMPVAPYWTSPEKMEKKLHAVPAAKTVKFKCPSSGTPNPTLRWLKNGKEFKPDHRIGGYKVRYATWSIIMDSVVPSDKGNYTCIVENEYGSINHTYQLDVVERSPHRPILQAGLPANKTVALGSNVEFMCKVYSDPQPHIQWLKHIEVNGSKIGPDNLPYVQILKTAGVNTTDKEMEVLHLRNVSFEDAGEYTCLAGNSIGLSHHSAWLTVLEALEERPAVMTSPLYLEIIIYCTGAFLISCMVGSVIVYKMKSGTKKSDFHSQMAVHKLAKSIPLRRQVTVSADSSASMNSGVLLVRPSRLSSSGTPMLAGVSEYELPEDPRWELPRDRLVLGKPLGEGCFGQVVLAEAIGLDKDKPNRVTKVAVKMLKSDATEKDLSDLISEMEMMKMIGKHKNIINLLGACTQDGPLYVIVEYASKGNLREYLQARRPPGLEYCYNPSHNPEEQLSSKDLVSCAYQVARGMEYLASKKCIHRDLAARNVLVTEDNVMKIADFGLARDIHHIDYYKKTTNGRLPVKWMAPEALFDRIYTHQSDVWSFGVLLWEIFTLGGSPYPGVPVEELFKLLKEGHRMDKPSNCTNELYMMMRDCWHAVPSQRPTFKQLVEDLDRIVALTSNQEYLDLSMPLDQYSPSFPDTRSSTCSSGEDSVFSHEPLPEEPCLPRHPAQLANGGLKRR
Protocol: as §1

FLT-4 = FLT-4 (Homo sapiens, UniProt P35916); assay: Kinome profiling FLT-4; format: biochemical; settings: read-out: Inhibitory activity FLT-4; for inhibition at 0.1 µM: 100 nM
FLT-4, sequence (P35916 25-1363): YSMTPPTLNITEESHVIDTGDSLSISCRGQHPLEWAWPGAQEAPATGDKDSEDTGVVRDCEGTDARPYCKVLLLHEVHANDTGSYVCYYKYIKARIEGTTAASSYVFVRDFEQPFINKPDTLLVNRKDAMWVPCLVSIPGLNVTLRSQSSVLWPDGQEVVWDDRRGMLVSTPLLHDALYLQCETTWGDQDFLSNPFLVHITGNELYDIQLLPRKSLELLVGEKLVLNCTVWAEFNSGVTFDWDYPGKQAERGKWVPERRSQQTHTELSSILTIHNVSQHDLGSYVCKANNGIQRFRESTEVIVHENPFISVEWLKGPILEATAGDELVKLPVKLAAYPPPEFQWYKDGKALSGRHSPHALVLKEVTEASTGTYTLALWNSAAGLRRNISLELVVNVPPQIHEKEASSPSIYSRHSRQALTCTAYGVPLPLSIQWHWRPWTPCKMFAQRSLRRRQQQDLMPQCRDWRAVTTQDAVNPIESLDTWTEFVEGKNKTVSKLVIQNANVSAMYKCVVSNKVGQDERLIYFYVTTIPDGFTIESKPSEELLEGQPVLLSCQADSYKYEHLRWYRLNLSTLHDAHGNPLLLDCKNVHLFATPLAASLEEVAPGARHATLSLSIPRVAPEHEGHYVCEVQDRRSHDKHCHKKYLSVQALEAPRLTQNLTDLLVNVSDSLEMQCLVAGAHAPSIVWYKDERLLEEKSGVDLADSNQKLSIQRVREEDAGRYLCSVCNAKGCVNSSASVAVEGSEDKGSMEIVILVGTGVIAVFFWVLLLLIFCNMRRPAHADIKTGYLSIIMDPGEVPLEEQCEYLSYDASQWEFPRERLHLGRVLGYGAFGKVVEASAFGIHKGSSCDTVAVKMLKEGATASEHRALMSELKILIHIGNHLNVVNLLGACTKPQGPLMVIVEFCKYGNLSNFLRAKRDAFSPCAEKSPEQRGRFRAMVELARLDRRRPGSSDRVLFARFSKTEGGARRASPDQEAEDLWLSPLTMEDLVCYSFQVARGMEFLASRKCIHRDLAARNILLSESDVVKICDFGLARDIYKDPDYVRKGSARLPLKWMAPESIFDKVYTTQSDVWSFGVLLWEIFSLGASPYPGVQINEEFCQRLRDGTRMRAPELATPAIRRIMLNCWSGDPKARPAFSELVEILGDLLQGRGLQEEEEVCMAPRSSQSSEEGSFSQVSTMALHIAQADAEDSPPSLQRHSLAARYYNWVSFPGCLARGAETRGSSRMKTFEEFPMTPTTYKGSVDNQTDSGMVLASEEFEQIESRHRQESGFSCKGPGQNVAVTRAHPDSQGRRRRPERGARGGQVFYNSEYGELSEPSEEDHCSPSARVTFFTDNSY
Protocol: as §1

CDK4/cyclinD = CDK4/cyclinD (Homo sapiens, UniProt P11802); assay: Kinome profiling CDK4/cyclinD; format: biochemical; settings: read-out: Inhibitory activity CDK4/cyclinD; for inhibition at 0.1 µM: 100 nM
CDK4/cyclinD, sequence (P11802 whole entry): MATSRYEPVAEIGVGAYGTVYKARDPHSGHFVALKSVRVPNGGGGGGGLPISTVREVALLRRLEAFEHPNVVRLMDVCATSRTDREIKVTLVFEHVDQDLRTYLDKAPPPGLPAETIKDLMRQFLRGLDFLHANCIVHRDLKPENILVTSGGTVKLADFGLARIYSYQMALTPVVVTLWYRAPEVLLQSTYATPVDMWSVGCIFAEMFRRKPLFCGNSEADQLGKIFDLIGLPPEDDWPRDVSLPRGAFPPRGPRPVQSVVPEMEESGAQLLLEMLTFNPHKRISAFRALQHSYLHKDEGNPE
CDK4/cyclinD, sequence (P24385 whole entry partner): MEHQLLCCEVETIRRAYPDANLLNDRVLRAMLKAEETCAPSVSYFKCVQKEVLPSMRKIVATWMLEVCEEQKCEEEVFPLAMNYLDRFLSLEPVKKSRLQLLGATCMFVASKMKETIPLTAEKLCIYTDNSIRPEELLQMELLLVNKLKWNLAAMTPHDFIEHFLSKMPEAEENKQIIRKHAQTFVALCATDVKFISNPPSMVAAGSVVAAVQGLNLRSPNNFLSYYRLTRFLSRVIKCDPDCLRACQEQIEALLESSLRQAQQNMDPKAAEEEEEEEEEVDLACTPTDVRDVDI
Protocol: as §1

IRR = IRR (Homo sapiens, UniProt P14616); assay: Kinome profiling IRR; format: biochemical; settings: read-out: Inhibitory activity IRR; for inhibition at 0.1 µM: 100 nM
IRR, sequence (P14616 27-1297): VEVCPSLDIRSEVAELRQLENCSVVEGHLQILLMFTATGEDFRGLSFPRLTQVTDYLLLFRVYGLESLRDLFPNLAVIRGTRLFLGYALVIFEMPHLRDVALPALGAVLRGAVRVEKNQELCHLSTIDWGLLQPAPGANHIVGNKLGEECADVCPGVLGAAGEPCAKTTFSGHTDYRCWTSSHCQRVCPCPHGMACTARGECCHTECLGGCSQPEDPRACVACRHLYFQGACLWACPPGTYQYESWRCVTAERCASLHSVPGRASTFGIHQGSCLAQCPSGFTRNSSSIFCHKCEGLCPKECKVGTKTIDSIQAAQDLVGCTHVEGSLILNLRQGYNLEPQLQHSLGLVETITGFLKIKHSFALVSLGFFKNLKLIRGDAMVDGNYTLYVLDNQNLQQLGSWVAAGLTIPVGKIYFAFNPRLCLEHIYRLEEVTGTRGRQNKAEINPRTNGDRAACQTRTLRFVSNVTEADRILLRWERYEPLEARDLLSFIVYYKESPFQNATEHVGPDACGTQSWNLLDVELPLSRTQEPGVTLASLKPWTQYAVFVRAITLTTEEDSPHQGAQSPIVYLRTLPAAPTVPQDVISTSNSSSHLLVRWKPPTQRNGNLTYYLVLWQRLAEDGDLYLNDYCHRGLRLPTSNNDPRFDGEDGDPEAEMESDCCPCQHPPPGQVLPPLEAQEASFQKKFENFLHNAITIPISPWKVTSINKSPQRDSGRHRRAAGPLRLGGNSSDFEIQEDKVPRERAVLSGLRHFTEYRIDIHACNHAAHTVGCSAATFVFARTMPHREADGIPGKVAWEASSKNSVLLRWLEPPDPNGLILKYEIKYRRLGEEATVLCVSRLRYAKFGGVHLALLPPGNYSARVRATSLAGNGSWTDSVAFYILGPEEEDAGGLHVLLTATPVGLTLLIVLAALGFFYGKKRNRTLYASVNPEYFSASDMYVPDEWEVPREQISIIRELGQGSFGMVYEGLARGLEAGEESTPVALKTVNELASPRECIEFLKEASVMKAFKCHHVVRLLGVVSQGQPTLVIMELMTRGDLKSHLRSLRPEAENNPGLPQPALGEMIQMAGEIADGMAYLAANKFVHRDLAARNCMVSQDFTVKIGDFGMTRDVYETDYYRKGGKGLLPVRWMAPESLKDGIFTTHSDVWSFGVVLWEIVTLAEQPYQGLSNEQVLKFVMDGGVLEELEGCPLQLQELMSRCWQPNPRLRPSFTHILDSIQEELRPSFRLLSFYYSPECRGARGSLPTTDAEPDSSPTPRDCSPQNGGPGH
Protocol: as §1

PKC-η = PKC-η (Homo sapiens, UniProt P24723); assay: Kinome profiling PKC-η; format: biochemical; settings: read-out: Inhibitory activity PKC-η; for inhibition at 0.1 µM: 100 nM
PKC-η, sequence (P24723 whole entry): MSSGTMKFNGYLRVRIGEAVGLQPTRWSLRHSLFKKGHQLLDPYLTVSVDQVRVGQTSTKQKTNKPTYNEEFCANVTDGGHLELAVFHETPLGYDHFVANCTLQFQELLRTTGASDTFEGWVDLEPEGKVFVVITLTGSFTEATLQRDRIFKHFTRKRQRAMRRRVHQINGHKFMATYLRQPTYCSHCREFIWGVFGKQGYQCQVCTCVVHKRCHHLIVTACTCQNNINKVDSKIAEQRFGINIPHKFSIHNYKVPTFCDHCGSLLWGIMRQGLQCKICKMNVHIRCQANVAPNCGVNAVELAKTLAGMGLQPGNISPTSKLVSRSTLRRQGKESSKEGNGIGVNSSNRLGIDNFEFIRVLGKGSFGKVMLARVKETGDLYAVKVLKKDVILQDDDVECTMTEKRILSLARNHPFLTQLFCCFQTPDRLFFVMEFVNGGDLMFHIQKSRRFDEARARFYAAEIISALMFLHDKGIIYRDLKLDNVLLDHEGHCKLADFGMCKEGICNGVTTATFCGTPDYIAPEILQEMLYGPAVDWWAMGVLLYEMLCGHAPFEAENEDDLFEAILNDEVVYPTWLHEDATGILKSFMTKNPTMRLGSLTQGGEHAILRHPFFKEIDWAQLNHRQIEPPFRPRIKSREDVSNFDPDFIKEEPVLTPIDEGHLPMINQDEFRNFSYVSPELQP
Protocol: as §1

PIM-1 = PIM-1 (Homo sapiens, UniProt P11309); assay: Kinome profiling PIM-1; format: biochemical; settings: read-out: Inhibitory activity PIM-1; for inhibition at 0.1 µM: 100 nM
PIM-1, sequence (P11309 whole entry): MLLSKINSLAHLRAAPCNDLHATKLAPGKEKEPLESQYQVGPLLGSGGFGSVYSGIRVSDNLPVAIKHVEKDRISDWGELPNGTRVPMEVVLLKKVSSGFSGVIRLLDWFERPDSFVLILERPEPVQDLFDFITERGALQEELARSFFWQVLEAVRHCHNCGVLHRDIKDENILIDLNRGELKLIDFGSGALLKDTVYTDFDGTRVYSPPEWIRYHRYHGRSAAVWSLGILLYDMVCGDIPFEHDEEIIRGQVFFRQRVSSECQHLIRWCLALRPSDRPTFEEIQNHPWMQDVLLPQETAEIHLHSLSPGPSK
Protocol: as §1

For `COc1cc(-c2cc(-c3ccc(N4CCNCC4)cc3)cnc2C)cc(OC)c1OC` [Compound 10, 1-(4-(6-methyl-5-(3,4,5-trimethoxyphenyl)pyridin-3-yl)phenyl)piperazine], the potency (caALK2; comparison across multiple assays (Tables 6 and 7)) was “reduction in potency”, the inhibition at 0.1 µM (TTK) was 3% and the inhibition at 1 µM (TTK) was 4%. For the same compound, the inhibition at 0.1 µM (FGFR1) was 5%, the inhibition at 1 µM (FGFR1) was 5% and the inhibition at 0.1 µM (FLT-4) was 3%. For the same compound, the inhibition at 1 µM (FLT-4) was 9%, the inhibition at 0.1 µM (CDK4/cyclinD) was -3% and the inhibition at 1 µM (CDK4/cyclinD) was 2%. The inhibition at 0.1 µM (IRR) was 2%, the inhibition at 1 µM (IRR) was 1% and the inhibition at 0.1 µM (PKC-η) was 5%. For the same compound, the inhibition at 1 µM (PKC-η) was 18%, the inhibition at 0.1 µM (PIM-1) was 1% and the inhibition at 1 µM (PIM-1) was 0%.
`COc1cc(-c2cc(-c3ccc(N4CCNCC4)cc3)cnc2N)cc(OC)c1OC` [Compound 15, 5-(4-(piperazin-1-yl)phenyl)-3-(3,4,5-trimethoxyphenyl)pyridin-2-amine] showed an IC50 (caALK2; read-out: Cell Based Assay caALK2 IC50) of 5 nM, an inhibition at 0.1 µM (TTK) of 13% and an inhibition at 1 µM (TTK) of 18%. For the same compound, the inhibition at 0.1 µM (FGFR1) was 3%, the inhibition at 1 µM (FGFR1) was 8% and the inhibition at 0.1 µM (FLT-4) was 1%. For the same compound, the inhibition at 1 µM (FLT-4) was 4%, the inhibition at 0.1 µM (CDK4/cyclinD) was 1% and the inhibition at 1 µM (CDK4/cyclinD) was 3%. The inhibition at 0.1 µM (IRR) was 3%, the inhibition at 1 µM (IRR) was 3% and the inhibition at 0.1 µM (PKC-η) was 3%. The inhibition at 1 µM (PKC-η) was -1%, the inhibition at 0.1 µM (PIM-1) was 0% and the inhibition at 1 µM (PIM-1) was -1%.
